What was measured:
Format in all cases: in vivo, human
[1] = NCT03311724: weight loss at Week 12
Excerpt: (§1) This is a 12-week treatment with a 1 week screening (Visit 1) followed by a 1 week lead-in (Visit 2), then 12 weeks of treatment (Visits 3-10, including telephone visits), then followed by 4-week safety follow-up. It is a Phase 2 study designed to examine the efficacy and tolerability of subcutaneously once-weekly tirzepatide compared with placebo in patients with type 2 diabetes who have inadequate glycemic control with diet and exercise alone or with a stable dose of metformin. The study was designed per below and conducted to refine the escalation scheme.

patients with T2DM = test: Biomarkers measured in clinical studies (eGFR, triglyceride)
Protocol: Clinically relevant biomarkers are measured in clinical studies to further support the use of tirzepatide for treating chronic kidney disease. […] Clinical study laboratory measurements support the use of tirzepatide in the treatment of chronic kidney disease. Clinically relevant biomarkers are measured to assess and support the use of tirzepatide in the treatment of atherosclerosis. Clinically relevant triglyceride levels decrease in all tirzepatide treatment groups. Clinical observations support that tirezepatide can be beneficial for use in the treatment of atherosclerosis.

[2] = tested on: patients with type 2 diabetes who have inadequate glycemic control; test: Phase 2 clinical study NCT03311724 (12 weeks, escalation schemes): patients reaching HbA1c target
Excerpt: as §1

[3] = LY 12 mg Group 3 (tirzepatide 4 mg × 4, 8 mg × 4, 12 mg × 4 once weekly), LOCF Week 12 (N = 27)
[4] = LY 12 mg Group 3 (tirzepatide 4 mg × 4, 8 mg × 4, 12 mg × 4 once weekly), Week 12 mITT on-treatment (N = 27)
[5] = LY 15 mg-Group 1 (tirzepatide 2.5 mg × 2, 5 mg × 2, 10 mg × 4, 15 mg × 4 once weekly), LOCF Week 12 (N = 27)
[6] = LY 15 mg-Group 1 (tirzepatide 2.5 mg × 2, 5 mg × 2, 10 mg × 4, 15 mg × 4 once weekly), Week 12 mITT on-treatment (N = 23)
[7] = LY 15 mg-Group 2 (tirzepatide 2.5 mg × 4, 7.5 mg × 4, 15 mg × 4 once weekly), LOCF Week 12 (N = 27)
[8] = LY 15 mg-Group 2 (tirzepatide 2.5 mg × 4, 7.5 mg × 4, 15 mg × 4 once weekly), Week 12 mITT on-treatment (N = 26)
[9] = LY 12 mg Group 3 (tirzepatide 4 mg × 4, 8 mg × 4, 12 mg × 4 once weekly), LOCF Week 12 (N = 28)
[10] = LY 15 mg-Group 1 (tirzepatide 2.5 mg × 2, 5 mg × 2, 10 mg × 4, 15 mg × 4 once weekly), LOCF Week 12 (N = 28)

In the case of tirzepatide [LY], the “body weight vs placebo (in words)” value ([1]; 12 mg and 15 mg tirzepatide doses, at 12 weeks) is reported as “significant reductions in body weight compared with placebo”, the “% of Patients Achieving Weight loss ≥5%” value [1, 3] is reported as 63.0% and the “% of Patients Achieving Weight loss ≥10%” value [1, 3] is reported as 18.5%. The “odds ratio vs. placebo, Weight loss ≥5%” value [1, 3] was 22.7, the “odds ratio vs. placebo, Weight loss ≥10%” value [1, 3] was 10.4 and the “% of Patients Achieving Weight loss ≥5%” value [1, 4] was 63.0%. The “% of Patients Achieving Weight loss ≥10%” value [1, 4] was 18.5%, the “odds ratio vs. placebo, Weight loss ≥5%” value [1, 4] was 20.7 and the “odds ratio vs. placebo, Weight loss ≥10%” value [1, 4] was 9.3. For the same substance, the “% of Patients Achieving Weight loss ≥5%” value [1, 5] was 59.3%, the “% of Patients Achieving Weight loss ≥10%” value [1, 5] was 14.8% and the “odds ratio vs. placebo, Weight loss ≥5%” value [1, 5] was 20.5. For the same substance, the “odds ratio vs. placebo, Weight loss ≥10%” value [1, 5] was 8.0, the “% of Patients Achieving Weight loss ≥5%” value [1, 6] was 56.5% and the “% of Patients Achieving Weight loss ≥10%” value [1, 6] was 13.0%. The “odds ratio vs. placebo, Weight loss ≥5%” value [1, 6] was 17.1, the “odds ratio vs. placebo, Weight loss ≥10%” value [1, 6] was 6.2 and the “% of Patients Achieving Weight loss ≥5%” value [1, 7] was 55.6%. The “% of Patients Achieving Weight loss ≥10%” value [1, 7] was 18.5%, the “odds ratio vs. placebo, Weight loss ≥5%” value [1, 7] was 17.6 and the “odds ratio vs. placebo, Weight loss ≥10%” value [1, 7] was 10.6. The “% of Patients Achieving Weight loss ≥5%” value [1, 8] was 57.7%, the “% of Patients Achieving Weight loss ≥10%” value [1, 8] was 19.2% and the “odds ratio vs. placebo, Weight loss ≥5%” value [1, 8] was 17.4. The “odds ratio vs. placebo, Weight loss ≥10%” value [1, 8] was 9.7, the “triglyceride levels (in words)” value (patients with T2DM; all tirzepatide treatment groups) was “decrease” and the “eGFR (in words)” value (patients with T2DM; study NCT03131687, at any dosage) was “no decrease in eGFR was observed”. The “placebo-adjusted changes from baseline in HbA1c (in words)” value ([2]; 12-mg and 15-mg tirzepatide doses, after 12 weeks of treatment, including an 8-week escalation period) was “statistically significant and clinically relevant”, the “% of Patients Reaching HbA1c Target <5.7%” value [2, 9] was 3.6% and the “% of Patients Reaching HbA1c Target <7%” value [2, 9] was 71.4%. For the same substance, the “odds ratio vs. placebo, Patients Reaching HbA1c Target <5.7%” value [2, 9] was 2.8, the “odds ratio vs. placebo, Patients Reaching HbA1c Target <7%” value [2, 9] was 16.1 and the “% of Patients Reaching HbA1c Target <5.7%” value [2, 4] was 3.7%. The “% of Patients Reaching HbA1c Target <7%” value [2, 4] was 74.1%, the “odds ratio vs. placebo, Patients Reaching HbA1c Target <5.7%” value [2, 4] was 2.5 and the “odds ratio vs. placebo, Patients Reaching HbA1c Target <7%” value [2, 4] was 56.5. For the same substance, the “% of Patients Reaching HbA1c Target <5.7%” value [2, 10] was 3.6%, the “% of Patients Reaching HbA1c Target <7%” value [2, 10] was 78.6% and the “odds ratio vs. placebo, Patients Reaching HbA1c Target <5.7%” value [2, 10] was 2.9. The “odds ratio vs. placebo, Patients Reaching HbA1c Target <7%” value [2, 10] was 25.1, the “% of Patients Reaching HbA1c Target <5.7%” value [2, 6] was 4.3% and the “% of Patients Reaching HbA1c Target <7%” value [2, 6] was 87.0%. The “odds ratio vs. placebo, Patients Reaching HbA1c Target <5.7%” value [2, 6] was 3.1, the “odds ratio vs. placebo, Patients Reaching HbA1c Target <7%” value [2, 6] was 183.5 and the “% of Patients Reaching HbA1c Target <5.7%” value [2, 7] was 7.4%. The “% of Patients Reaching HbA1c Target <7%” value [2, 7] was 85.2%, the “odds ratio vs. placebo, Patients Reaching HbA1c Target <5.7%” value [2, 7] was 5.0 and the “odds ratio vs. placebo, Patients Reaching HbA1c Target <7%” value [2, 7] was 37.9. The “% of Patients Reaching HbA1c Target <5.7%” value [2, 8] was 7.7%, the “% of Patients Reaching HbA1c Target <7%” value [2, 8] was 84.6% and the “odds ratio vs. placebo, Patients Reaching HbA1c Target <5.7%” value [2, 8] was 4.6. For the same substance, the “odds ratio vs. placebo, Patients Reaching HbA1c Target <7%” value [2, 8] was 157.5.
